From PubChem BioAssay (NCI) come the findings set out here.

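A five-concentration, 48-hour dose response in 96-well plates underlies each endpoint, interpolated linearly between surrounding concentrations. GI50 marks 50% less growth. Definition used: TGI = concentration required for complete inhibition of growth.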

Test systems include IGROV1 ovarian; NCI-H23 lung; RXF 393 renal; KM12 colon; CAKI-1 renal; TK-10 renal; SK-MEL-28 melanoma; M14 melanoma; SK-OV-3 ovarian; NCI-H226 lung.
Common to all, as to test: NCI tumour cell line growth inhibition, 48 h

Regarding `COc1cc2c(cc1OCCCOc1cc3c(cc1OC)C(=O)N1CC(F)(F)C[C@H]1C=N3)N=C[C@@H]1CC(F)(F)CN1C2=O`, the GI50 is 0.116 µM in the assay with IGROV1 ovarian; 0.492 µM in the assay with NCI-H23 lung; 1.38 µM in the assay on RXF 393 renal; 2.37 µM in the assay with KM12 colon; 0.185 µM in the assay with CAKI-1 renal; 3.56 µM with TK-10 renal. For the same molecule, the GI50 is 1.95 µM in the assay with SK-MEL-28 melanoma, 0.698 µM in the assay with M14 melanoma and 1.02 µM in the assay on SK-OV-3 ovarian. Also, the TGI with IGROV1 ovarian was 2.33 µM; in the assay on NCI-H23 lung, 9.86 µM; in the assay on RXF 393 renal, 2.87 µM; in the assay with KM12 colon, 13.6 µM; in the assay with CAKI-1 renal it was 0.708 µM; with TK-10 renal it was 12.5 µM. Besides, the TGI in the assay with SK-MEL-28 melanoma is 5.47 µM; with M14 melanoma, 3.7 µM; with SK-OV-3 ovarian, greater than 30.3 µM.

For the molecule `COc1ccc2c(c1)C(=O)c1c-2n(CCCCl)c(=O)c2cc([N+](=O)[O-])ccc12`, the GI50 with IGROV1 ovarian was 0.0585 µM; with NCI-H23 lung it was 0.107 µM; with RXF 393 renal it was 1.58 µM; with KM12 colon, 0.271 µM; in the assay on CAKI-1 renal, 0.242 µM; in the assay with TK-10 renal, 0.639 µM. The values for the GI50 with NCI-H226 lung, in the assay on SK-MEL-28 melanoma and with SK-OV-3 ovarian were less than 0.01 µM, 2.64 µM and 0.569 µM, respectively. The TGI with IGROV1 ovarian was 6.57 µM; in the assay with RXF 393 renal, greater than 100 µM; with CAKI-1 renal, 0.959 µM; in the assay on NCI-H226 lung, greater than 100 µM; in the assay with SK-MEL-28 melanoma, greater than 100 µM; in the assay with M14 melanoma, 0.361 µM. The molecule also yielded a TGI with SK-OV-3 ovarian greater than 100 µM.

Consider `N=C(N)SC(c1ccccc1)c1ccccc1`, for which the TGI in the assay on IGROV1 ovarian stood at 42.8 µM; with NCI-H23 lung, 28.3 µM; with RXF 393 renal, 19.4 µM; in the assay on KM12 colon, 32.9 µM; with CAKI-1 renal it was 29.4 µM; with TK-10 renal it was 28.2 µM. Also, the TGI in the assay on NCI-H226 lung was 60.9 µM; in the assay on SK-MEL-28 melanoma, 18.6 µM; in the assay on M14 melanoma, 23.7 µM; with SK-OV-3 ovarian it was greater than 100 µM.

In the case of `NS(=O)(=O)c1ccc(C(=O)O)cc1`, the TGI in the assay on IGROV1 ovarian, in the assay with NCI-H23 lung, in the assay on RXF 393 renal, with KM12 colon, in the assay on CAKI-1 renal and with TK-10 renal was greater than 100 µM throughout. Also, the TGI in the assay with SK-MEL-28 melanoma, in the assay on M14 melanoma and with SK-OV-3 ovarian was greater than 100 µM throughout.

Turning to `CC(C)(c1ccccc1)c1ccc(Oc2ccc3c(c2)-c2nc-3nc3[nH]c(nc4nc(nc5[nH]c(n2)c2ccc(Oc6ccc(C(C)(C)c7ccccc7)cc6)cc52)-c2cc(Oc5ccc(C(C)(C)c6ccccc6)cc5)ccc2-4)c2ccc(Oc4ccc(C(C)(C)c5ccccc5)cc4)cc32)cc1`, the TGI is greater than 100 µM with IGROV1 ovarian; greater than 100 µM in the assay on NCI-H23 lung; 97 µM in the assay on RXF 393 renal; greater than 100 µM with KM12 colon; greater than 100 µM in the assay on TK-10 renal; greater than 100 µM in the assay with SK-MEL-28 melanoma. The TGI with M14 melanoma and in the assay with SK-OV-3 ovarian was greater than 100 µM in each case.

For `Cc1cccc(NC(N)=S)c1`, the TGI in the assay with NCI-H23 lung, in the assay with RXF 393 renal, in the assay on KM12 colon, in the assay on TK-10 renal, with SK-MEL-28 melanoma and in the assay with M14 melanoma was greater than 100 µM in each case. The TGI in the assay with SK-OV-3 ovarian is greater than 100 µM.

As for `O=C(Nc1ccc(-n2ccc3c(NC(=O)c4ccccc4)ncnc32)cc1)Nc1ccc(Cl)c(C(F)(F)F)c1`, the GI50 in the assay with IGROV1 ovarian is 1.77 µM; with NCI-H23 lung it was 2.19 µM; with RXF 393 renal, 1.5 µM; in the assay with KM12 colon it was 1.62 µM; in the assay on CAKI-1 renal it was 1.69 µM; with TK-10 renal, 1.8 µM. Also, the GI50 is 2.39 µM with NCI-H226 lung, 1.93 µM in the assay on SK-MEL-28 melanoma and 1.66 µM in the assay with M14 melanoma. The TGI turned out to be 3.91 µM with IGROV1 ovarian; 5.28 µM in the assay on NCI-H23 lung; 3.28 µM in the assay with RXF 393 renal; 3.79 µM with KM12 colon; 3.81 µM in the assay on CAKI-1 renal; 4.95 µM in the assay on TK-10 renal. In addition, the TGI is 7.06 µM in the assay with NCI-H226 lung, 4.46 µM in the assay with SK-MEL-28 melanoma and 3.64 µM with M14 melanoma.

Take `CCc1cc(C)cc2[n+]1CC=C2C`: the TGI in the assay with NCI-H23 lung, with RXF 393 renal, in the assay with KM12 colon, in the assay on CAKI-1 renal, with TK-10 renal and with NCI-H226 lung was greater than 100 µM in each case. In addition, the TGI in the assay on SK-MEL-28 melanoma and in the assay on M14 melanoma was greater than 100 µM each time.

Take `CN(C)C=O.CN(C)C=O.CN1C(C(=O)Nc2ccccn2)=C([O-])c2ccccc2S1(=O)=O.CN1C(C(=O)Nc2ccccn2)=C([O-])c2ccccc2S1(=O)=O.[Cu+2]`: the GI50 in the assay on IGROV1 ovarian is 36.3 µM. Besides, the TGI with IGROV1 ovarian was greater than 100 µM; in the assay on NCI-H23 lung it was 57 µM; in the assay with RXF 393 renal it was 61.7 µM; with KM12 colon it was greater than 100 µM; in the assay with TK-10 renal, greater than 100 µM; in the assay on SK-MEL-28 melanoma it was greater than 100 µM. Also, the results for the TGI in the assay on M14 melanoma and in the assay on SK-OV-3 ovarian were greater than 100 µM and 45.8 µM, respectively.

Regarding `COc1ccc(C(=O)NNC(=O)c2nsc3ccccc23)cc1`, the TGI with IGROV1 ovarian, in the assay on NCI-H23 lung, in the assay with RXF 393 renal, in the assay on KM12 colon, in the assay with TK-10 renal and in the assay with SK-MEL-28 melanoma was greater than 100 µM throughout. The same molecule yielded a TGI in the assay on M14 melanoma greater than 100 µM.

Take `COC(=O)C12OCC34C(CC5C(C)C6=CC(=O)OC6=CC5(C)C3C(O)C1O)OC(=O)C(OC(C)=O)C24` (centres undefined): the TGI in the assay with IGROV1 ovarian came out at 65.1 µM; in the assay on NCI-H23 lung, 32.5 µM; in the assay with RXF 393 renal it was 29 µM; in the assay on KM12 colon it was 32.6 µM; with CAKI-1 renal it was 25.2 µM; with TK-10 renal, 31.4 µM. Besides, the TGI was determined as 53.2 µM with NCI-H226 lung, 30.1 µM in the assay on SK-MEL-28 melanoma, 32.8 µM in the assay on M14 melanoma and 79.4 µM in the assay with SK-OV-3 ovarian.

On to `O=C1CC(c2ccccc2)NCCCCN2CC(CN1)C(C(O)c1ccccc1)C2=O` (centres undefined), for which the TGI in the assay with IGROV1 ovarian, in the assay with NCI-H23 lung, in the assay with RXF 393 renal, in the assay with KM12 colon, with CAKI-1 renal and in the assay with TK-10 renal was greater than 100 µM in each case. Also, the TGI in the assay with NCI-H226 lung, in the assay on SK-MEL-28 melanoma, in the assay on M14 melanoma and in the assay on SK-OV-3 ovarian was greater than 100 µM each time.

Take `CC1(C)CCCC2(C)C3=C(CCC12)C(=O)OC3` (centres undefined): the TGI in the assay on IGROV1 ovarian, in the assay with NCI-H23 lung, with RXF 393 renal, with KM12 colon, with CAKI-1 renal and in the assay on TK-10 renal was greater than 100 µM each time. Also, the TGI with NCI-H226 lung, in the assay on SK-MEL-28 melanoma, with M14 melanoma and in the assay on SK-OV-3 ovarian was greater than 100 µM throughout.

`NC(CCCNc1ccc(O)cc1)C(=O)O` (centres undefined): the TGI in the assay with IGROV1 ovarian was 61.5 µM; with NCI-H23 lung, greater than 100 µM; in the assay with RXF 393 renal, 63.6 µM; in the assay on KM12 colon, greater than 100 µM; in the assay on CAKI-1 renal it was greater than 100 µM; in the assay on TK-10 renal, 97.7 µM. In addition, the TGI in the assay with NCI-H226 lung was greater than 100 µM; in the assay with SK-MEL-28 melanoma, greater than 100 µM; with M14 melanoma, greater than 66.9 µM; in the assay with SK-OV-3 ovarian, greater than 100 µM.

Turning to `Cc1cc(N2CCCCC2)nc(NCc2cc(Nc3ccnc4cc(Cl)ccc34)ccc2F)n1`, the GI50 in the assay on NCI-H23 lung is 1.83 µM; with RXF 393 renal it was 1.79 µM; in the assay with KM12 colon, 1.69 µM; with CAKI-1 renal it was 1.74 µM; in the assay on TK-10 renal, 1.96 µM; in the assay with NCI-H226 lung it was 2.02 µM. Moreover, the GI50 is 1.92 µM in the assay with M14 melanoma and 1.93 µM in the assay with SK-OV-3 ovarian. The TGI in the assay with NCI-H23 lung was 4.92 µM; in the assay with RXF 393 renal, 3.47 µM; in the assay on KM12 colon it was 3.29 µM; in the assay on CAKI-1 renal, 3.32 µM; in the assay with TK-10 renal it was 3.67 µM; in the assay on NCI-H226 lung, 4.57 µM. Further, the TGI with M14 melanoma was determined as 3.69 µM; in the assay on SK-OV-3 ovarian, 3.48 µM.

On to `NCc1ccc(O)c(O)c1O`, for which the TGI is greater than 86.3 µM in the assay with IGROV1 ovarian; greater than 67.3 µM with NCI-H23 lung; greater than 81.1 µM in the assay with RXF 393 renal; 49 µM with KM12 colon; greater than 46.4 µM in the assay with CAKI-1 renal; greater than 100 µM in the assay on TK-10 renal. Also, the TGI in the assay on NCI-H226 lung was greater than 66.7 µM; with SK-MEL-28 melanoma it was greater than 100 µM; in the assay on M14 melanoma it was 27.7 µM; in the assay with SK-OV-3 ovarian, greater than 100 µM.

As to `Cn1c(=O)c2c(nc(N3CCOCC3)n2CCCNCC(O)c2ccc(O)c(O)c2)n(C)c1=O` (centres undefined), the TGI in the assay with IGROV1 ovarian, in the assay on NCI-H23 lung, in the assay with RXF 393 renal, in the assay on KM12 colon, with CAKI-1 renal and in the assay with TK-10 renal was greater than 100 µM throughout. The TGI in the assay on NCI-H226 lung, in the assay with SK-MEL-28 melanoma, in the assay with M14 melanoma and in the assay with SK-OV-3 ovarian was greater than 100 µM throughout.

With `Cc1nc2ccccc2c(=O)n1Nc1ccc(C(=O)O)cc1`, the TGI with IGROV1 ovarian, in the assay with NCI-H23 lung, in the assay with RXF 393 renal, with KM12 colon, with CAKI-1 renal and with NCI-H226 lung was greater than 100 µM throughout. Besides, the TGI in the assay with SK-MEL-28 melanoma and in the assay on SK-OV-3 ovarian was greater than 100 µM each time.

As for `CC(C)C(C)C(O)C(O)C(C)C1CCC2C3COC(=O)C4CC(O)C(O)CC4(C)C3CCC12C` (centres undefined), the TGI is greater than 100 µM in the assay with IGROV1 ovarian; greater than 100 µM with NCI-H23 lung; 67.4 µM in the assay with RXF 393 renal; greater than 100 µM in the assay on KM12 colon; 26.3 µM with CAKI-1 renal; greater than 100 µM in the assay with TK-10 renal. The TGI with NCI-H226 lung, in the assay with SK-MEL-28 melanoma, with M14 melanoma and in the assay with SK-OV-3 ovarian was greater than 100 µM throughout.
